# Test results reported in a melting point compilation (Tetko et al.; mined from patent text by program, amines drawn as free bases though some values may be those of a salt).
row,melting point [°C],Compound
1,64,O=S(=O)(Cl)c1cncc(Br)c1
2,226 to 228,CC1Cc2cc(S(N)(=O)=O)cc(C(=O)NC3CCN(Cc4ccccc4)CC3)c2O1 (stereo not given)
3,126,CN(C)C(=O)c1ccc(F)c2c1CC(N(CCCc1c[nH]c3ccc(F)cc13)C1CCC1)CO2 (stereo not given)
4,195 to 197,Fc1ccc(-c2[nH]cc(CCCN3CCCCC3)c2-c2ccncc2)cc1
5,156,COC(=O)Cc1cccc(NC(=O)NCC(=O)N2[C@@H](C(=O)N3CCCC3)C[C@H](S(=O)(=O)c3ccccc3)[C@H]2c2ccccc2F)c1 (racemic)
6,108 to 110,Cc1nc(-n2cc(CCCc3ccccc3)nn2)sc1C(=O)NCc1cccnc1
7,158 to 160,CC(C)(CC(O)(Cn1cc(Cl)c(=O)c2cnccc21)C(F)(F)F)c1cccc2c1OCC2 (stereo not given)
8,232 to 235,O=c1[nH]c(-c2ccccc2)c(-c2ccccc2S(=O)(=O)NCCCBr)o1
9,102,CC(C)(C)OC(=O)NCCCCNC(=O)Cc1ccc2ccccc2c1
10,100,CCOC(=O)NC1CCN(Cc2ccccc2)CC1
11,198 to 200,O=C(O)CN(CCc1ccccc1)C(=O)[C@@H]1C[C@@H](S)CN1S(=O)(=O)c1ccc2ccccc2c1
12,74 to 75,Nc1ccc(/C=C/c2c(F)cccc2F)cc1
13,201 to 203,COc1ccc(Cn2nnnc2C(=O)Nc2cc(Cl)cc(NC(=O)c3nnnn3Cc3ccc(OC)cc3)n2)cc1
14,109 to 111,CCOC(=O)c1ccc(OCc2ccc3c(c2)C(C)(C)CCC3(C)C)cc1
15,> 250,O=C(Nc1nc(=O)[nH]s1)c1ccc2ccccc2c1
16,96,O=C1C=C2CCCCC2N1c1ccc(OCCN2CCOCC2)cc1 (stereo not given)
17,138 to 141,COc1ccccc1N1CCN([C@@H]2Cc3c(cccc3OC)C[C@H]2O)CC1 (relative stereo)
18,49 to 50,O=C1CC2OC(CBr)CN12 (stereo not given)
19,270 to 272,N#Cc1cc(-c2ccccc2)c(C(=O)O)cn1
20,117 to 118,Cc1nc(C)c(C(=O)Nc2cccc3c2C(C)CC3(C)C)s1 (stereo not given)
21,244 to 246,O=C(O)c1ccc(-n2c(-c3ccccc3)cc3c2CCCC3)cc1
22,142,Cc1c(C(=O)Nc2ccc(SCCCN3CCCCC3)c(C#N)c2)cnn1-c1ccc(Cl)cc1
23,148 to 150,CCN(c1ccc(Cl)cc1C(N)=O)S(=O)(=O)c1ccc(C)cc1
24,337 to 339,C[C@H](NC(=O)c1c[nH]c2ncc(-c3cn(-c4cc(Cl)ccc4F)cn3)nc12)C(C)(C)C

# More lines, now with the values behind:
row,Compound,melting point [°C]
1,CC(C)NC(=O)Nc1ccc2c(c1Cl)C(c1ccccc1F)=NCC(=O)N2C,130 to 140
2,COCCc1nc2c(N)nc3cc(-c4ccsc4)ccc3c2n1CC(C)(C)O,233 to 234
3,Cc1nc(-n2cccc(OCc3ccccc3)c2=O)sc1C(=O)NCc1ccccc1,198 to 201
4,CC1(C)CCC(N)=CC1=O,153 to 154
5,Cc1oc(-c2ccccc2)nc1COc1ccc(CC2SC(=O)NC2=O)cc1 (stereo not given),162 to 163
6,COc1cc(-c2nc3cnc(OC[C@H](C)NC(C)=O)cc3o2)cc(F)c1OCC1CC1,163
7,Cc1cc(N2CCC(CN3CCN(S(=O)(=O)c4ccc(Br)cc4)CC3)CC2)nc(C)n1,73 to 74
8,COc1ccc(CSC(=S)N2Cc3[nH]c4ccccc4c3CC2C(=O)O)cc1 (stereo not given),195 to 196
9,CC(C)(C)c1ccc(C(=O)NCc2ccc3c(c2)C(=O)N(C2CCC(=O)NC2=O)C3=O)cc1 (stereo not given),164 to 166
10,COCc1nc2c(NCc3c(C)cccc3C)cc(C(=O)N(C)C)cc2n1C,156 to 157
11,FC(F)c1cc(-c2ccc(C(F)(F)F)cc2)nc2cncn12,173
12,CNC(=C[N+](=O)[O-])NCCSCc1cc2ccc(CN(C)C)cc2o1,113 to 114
13,COc1cc(S(N)(=O)=O)cc(C(=O)NC2CCN(CC3CCCCC3)C2)c1OC (stereo not given),167
14,CCN1CC(=O)N(c2cc(Cl)ccc2C)C1=S,152 to 154
15,Cc1c(C)c2c(c(C)c1N)C(c1cccnc1)C(C)(C)O2 (stereo not given),130 to 131
16,Cn1c(Cc2c(F)cccc2F)nnc1C(N)=O,189 to 190

row,Compound,melting point [°C]
1,CC(C)(NC(=O)CCc1nccn1Cc1ccccc1)c1ccc(Cl)cc1,128 to 129
2,Cc1sc(C(=O)OCc2ccccc2)cc1NC(=O)Cc1ccccc1,173 to 174
3,CCOCCNC(=O)Oc1cccc(NC(=O)C=C(C)OC)c1,133 to 134
4,Cc1ccc(-c2cc(C(=O)C=Cc3ccc(C(=O)O)cc3)cc(C(C)(C)C)c2OCc2ccccc2)cc1,208
5,CC(C)(C)OC(=O)C=C(c1ccc(C#N)s1)n1ccnc1,90 to 91
6,Cn1c(C(F)(F)F)cc(=O)n(-c2ccc3snc(C4OCC(CS(C)=O)O4)c3c2)c1=O (stereo not given),72 to 75
7,COc1ccc(-c2c(NC(C)(C)Cc3ccccc3)c(=O)c2=O)cc1,150 to 151
8,CN1CCC(CCCC2CCN(CC(=O)N3c4ccccc4C(=O)Nc4cccnc43)CC2)CC1,192 to 194
9,CC(=O)c1cc(N2CCCC2)ccc1NC(=O)c1cccc2c1OCO2,139 to 141
10,CN(C)C1(c2cccc(F)c2)CC=C(c2[nH]c3ccccc3c2CCc2ccncc2)CC1 (stereo not given),194 to 198
11,O=C(O)c1ccc(F)c(Oc2ccccc2)c1,226 to 227
12,CC(C)N(CCCN1C(=O)/C(=N/NC(N)=O)c2ccccc21)C(C)C,173 to 175
13,N#CCc1c[nH]c2cccc(Cl)c12,134 to 136
14,CN(C)CCNC(=O)c1nnc(-c2ccccc2)cc1-c1cccc([N+](=O)[O-])c1,157 to 158
15,COc1ccc(-c2ccc(C)n2CC[C@H]2C[C@H](O)CC(=O)O2)cc1 (relative stereo),95
